Assay results from patent publication US3933793A, “Therapeutically active 2-aminoalkylthio-3H-1.5-benzodiazepines and process for preparing them” (Recordati S.A. Chemical and Pharmaceutical Company, priority 1971, dated 1976).
≈ marks a conversion by molar mass, not a printed value. Counter-ions that a name gives are not always drawn.

What was measured:
[1] = test system: Micrococcus pyogenes SG-511; assay: Antibacterial activity, minimum inhibitory concentration; conditions: Staphylococcus aureus, SG511, 18 h, read-out: minimum inhibitory concentration, M. pyogenes
Description: (§1) The antibacterial activity of some of the 3H-1,5-benzodiazepines having the general formula I was tested on the following microorganisms:
(§2) Escherichia coli 100, Bacillus subtilis ATCC 9466, Micrococcus pyogenes SG-511, grown in Difco nutritive gelatin; Streptococcus pyogenes A 88 grown in Difco "Brain heart infusion agar" gelatin with 5 percent difibrinated Guinea pig blood.
(§3) The results were read after 18 hours incubation at 35°-37°C.

[2] = test system: Bacillus subtilis ATCC 9466; assay: as above; conditions: ATCC9466, 18 h, read-out: minimum inhibitory concentration, B. subtilis
Description: as §1, §2, §3

[3] = test system: Streptococcus pyogenes A 88; assay: as above; conditions: A88, 18 h, read-out: minimum inhibitory concentration, S. pyogenes
Description: as §1, §2, §3

Escherichia coli 100 = assay: as above; conditions: Escherichia coli, 100, 18 h, read-out: minimum inhibitory concentration, B. coli
Description: as §1, §2, §3

[4] = test system: influenza A virus (PR8 strain); assay type: in vivo; conditions: 0.5 MTD in 10 ml buffered saline with virus, 1 hour at 37°C

SMILES	MIC [1]	MIC [2]	MIC [3]	MIC (Escherichia coli 100)	APR8: difference between logarithms of EID95 of controls and of treated eggs [4]
C[N+]1(C)CCN(CCCSC2=Nc3ccccc3N=C(c3ccccc3)C2)CC1 [Compound 9, 2,gamma,N'-methyl-N-piperazine-n-propylthio-4-phenyl-3H-1,5-benzodiazepine monoiodomethylate]	160 µg/mL	160 µg/mL	80 µg/mL		
C[N+](C)(C)CCCSC1=Nc2ccccc2N=C(c2ccccc2)C1 [Compound 12, 2,gamma,N-dimethylaminopropylthio-4-phenyl-3H-1,5-benzo-diazepine iodomethylate]		160 µg/mL	80 µg/mL	80 µg/mL	
Clc1ccc(C2=Nc3ccccc3N=C(SCCCN3CCCC3)C2)cc1 [Compound 13, 2,gamma,N-pyrrolidinopropylthio-4,p-chlorophenyl-3H-1,5-benzodiazepine^. HCl]	40 µg/mL	40 µg/mL	40 µg/mL	80 µg/mL	
C[N+]1(CCCSC2=Nc3ccccc3N=C(c3ccc(Cl)cc3)C2)CCCC1 [Compound 14, 2,gamma,N-pyrrolidinopropylthio-4,p-chlorophenyl-3H-1.5-benzodiazepine iodomethylate]	20 µg/mL	40 µg/mL	40 µg/mL	40 µg/mL	
Clc1ccc(C2=Nc3ccccc3N=C(SCCN3CCCC3)C2)cc1 [Compound 15, 2,beta,N-pyrrolidinoethylthio-4,p-chlorophenyl-3H-1,5-benzodiazepine]	40 µg/mL (≈ 104 µM)	20 µg/mL (≈ 52.1 µM)	40 µg/mL (≈ 104 µM)	80 µg/mL (≈ 208 µM)	
C[N+]1(CCSC2=Nc3ccccc3N=C(c3ccc(Cl)cc3)C2)CCCC1 [Compound 16, 2,β,N-pyrrolidinoethylthio-4,p-chlorophenyl-3H-1,5-benzodiazepine iodomethylate]	20 µg/mL	40 µg/mL	40 µg/mL	40 µg/mL	
CCN(CC)CCSC1=Nc2ccccc2N=C(c2ccc(Cl)cc2)C1 [Compound 17, 2,beta,N-diethylaminoethylthio-4,p-chlorophenyl-3H-1,5-benzodiazepine^.HCl]	40 µg/mL	20 µg/mL	20 µg/mL		
CC[N+](C)(CC)CCSC1=Nc2ccccc2N=C(c2ccc(Cl)cc2)C1 [Compound 18, 2,beta,N-diethylaminoethylthio-4,p-chlorophenyl-3H-1,5-benzodiazepine iodomethylate]	40 µg/mL	20 µg/mL		20 µg/mL	
CCN(CC)CCCSC1=Nc2ccccc2N=C(c2ccc(Cl)cc2)C1 [Compound 19, 2,gamma,N-diethylaminopropylthio-4,p-chlorophenyl-3H-1,5-benzodiazepine^. HCl]	40 µg/mL	40 µg/mL	40 µg/mL	80 µg/mL	
CC[N+](C)(CC)CCCSC1=Nc2ccccc2N=C(c2ccc(Cl)cc2)C1 [Compound 20, 2,gamma,N-diethylaminopropylthio-4,p-chlorophenyl-3H-1,5-benzodiazepine iodomethylate]	20 µg/mL	80 µg/mL	40 µg/mL	80 µg/mL	
CCN(CC)CCSC1=Nc2ccccc2N=C(c2cccc(Cl)c2)C1 [Compound 21, 2,beta,N-diethylaminothylthio-4,m-chlorophenyl-3H-1,5-benzodiazepine^. HCl]	40 µg/mL	20 µg/mL	40 µg/mL	80 µg/mL	
CC[N+](C)(CC)CCSC1=Nc2ccccc2N=C(c2cccc(Cl)c2)C1 [Compound 22, 2,beta,N-diethylaminoethylthio-4,m-chlorophenyl-3H-1,5-benzodiazepine iodomethylate]	20 µg/mL	80 µg/mL	40 µg/mL	40 µg/mL	
CC[N+](C)(CC)CCSC1=Nc2ccccc2N=C(c2ccccc2Cl)C1 [Compound 24, 2,β,N-diethylaminoethylthio-4,o-chlorophenyl-3H-1,5-benzodiazepine iodomethylate]	80 µg/mL				
CCN(CC)CCSC1=Nc2ccccc2N=C(c2ccc(Oc3ccccc3)cc2)C1 [Compound 27, 2,beta,N-diethylaminoethylthio-4,p-phenoxyphenyl-3H-1,5-benzodiazepine.HCl]		10 µg/mL		80 µg/mL	
CC[N+](C)(CC)CCSC1=Nc2ccccc2N=C(c2ccc(Oc3ccccc3)cc2)C1 [Compound 28, 2,beta,N-diethylaminoethylthio-4,p-phenoxyphenyl-3H-1,5-benzodiazepine iodomethylate]					1
CCN(CC)CCSC1=Nc2ccccc2N=C(c2ccc(Sc3ccccc3)cc2)C1 [Compound 29, 2,beta-N-diethylaminoethylthio-4,p-phenylthiophenyl-3H-1,5-benzodiazepine.HOl]				80 µg/mL (≈ 174 µM)	
CC[N+](C)(CC)CCSC1=Nc2ccccc2N=C(c2ccc(Sc3ccccc3)cc2)C1 [Compound 30, 2,beta,N-diethylaminoethylthio-4,p-phenylthio-phenyl-3H-1,5-benzodiazepine iodomethylate]		10 µg/mL			1
CC[N+](CC)(CCSC1=Nc2ccccc2N=C(c2ccc(Sc3ccccc3)cc2)C1)Cc1ccccc1 [Compound 31, 2,beta,N-diethylaminoethylthio-4,p-phenylthio-phenyl-3H-1,5-benzodiazepine bromobenzylate]		10 µg/mL			> 3
CN1CCN(CCSC2=Nc3ccccc3N=C(c3ccc(Sc4ccccc4)cc3)C2)CC1 [Compound 34, 2,beta,N(N'-methyl)piperazinoethylthio-4,p-phenylthiophenyl-3H-1,5-benzodiazepine citrate]		40 µg/mL			> 3
C[N+]1(C)CCN(CCSC2=Nc3ccccc3N=C(c3ccc(Sc4ccccc4)cc3)C2)CC1 [Compound 35, 2,beta,N(N'-methyl)piperazinoethylthio-4,p-phenylthiophenyl-3H-1,5-benzodiazepine monoiodomethylate]		10 µg/mL			2

SMILES	MIC [1]	MIC [2]	MIC [3]	MIC (Escherichia coli 100)	APR8: difference between logarithms of EID95 of controls and of treated eggs [4]
C[N+]1(C)CC[N+](C)(CCSC2=Nc3ccccc3N=C(c3ccc(Sc4ccccc4)cc3)C2)CC1 [Compound 36, 2,beta,N(N'-methyl)piperazinoethylthio-4-p-phenylthiophenyl-3H-1,5-benzodiazepine bis-iodomethylate]		80 µg/mL		160 µg/mL	
c1ccc(Sc2ccc(C3=Nc4ccccc4N=C(SCCCN4CCCC4)C3)cc2)cc1 [Compound 37, 2,gamma,pyrrolidinopropylthio-4,p-phenylthiophenyl-3H-1,5-benzodiazepine.HC]	5 µg/mL (≈ 10.6 µM)	5 µg/mL (≈ 10.6 µM)	5 µg/mL (≈ 10.6 µM)		
c1ccc(Sc2ccc(C3=Nc4ccccc4N=C(SCCN4CCCC4)C3)cc2)cc1 [Compound 43, 2,beta,N-pyrrolidinoethylthio-4,p-phenylthiophenyl-3H-1,5-benzodiazepine]		1.25 µg/mL (≈ 2.73 µM)	1.25 µg/mL (≈ 2.73 µM)		
CN(C)CCSC1=Nc2ccccc2N=C(c2ccc(Sc3ccccc3)cc2)C1 [Compound 45, 2,beta,N-dimethylaminoethylthio-4,p-phenylthiophenyl-3H-1,5-benzodiazepine citrate]		20 µg/mL			
CCN(CC)CCSC1=Nc2ccccc2N=C(c2ccccc2)C1 [Compound 53]	80 µg/mL (≈ 228 µM)	80 µg/mL (≈ 228 µM)		80 µg/mL (≈ 228 µM)	
c1ccc(C2=Nc3ccccc3N=C(SCCN3CCCC3)C2)cc1 [Compound 57]	80 µg/mL (≈ 229 µM)	160 µg/mL (≈ 458 µM)	80 µg/mL (≈ 229 µM)		
C[N+]1(CCSC2=Nc3ccccc3N=C(c3ccccc3)C2)CCCC1 [Compound 58]					1
c1ccc(C2=Nc3ccccc3N=C(SCCN3CCCCC3)C2)cc1 [Compound 59]	80 µg/mL (≈ 220 µM)	80 µg/mL (≈ 220 µM)		160 µg/mL (≈ 440 µM)	
C[N+]1(CCSC2=Nc3ccccc3N=C(c3ccccc3)C2)CCOCC1 [Compound 62]					1
CN1CCN(CCSC2=Nc3ccccc3N=C(c3ccccc3)C2)CC1 [Compound 63]					1
CCN(CC)CCSC1=Nc2ccccc2N=C(c2ccc(OC)cc2)C1 [Compound 69]			80 µg/mL (≈ 210 µM)		
CCN(CC)CCSC1=Nc2ccccc2N=C(c2ccc(Br)cc2)C1 [Compound 71]	20 µg/mL (≈ 46.5 µM)	10 µg/mL (≈ 23.2 µM)	10 µg/mL (≈ 23.2 µM)	80 µg/mL (≈ 186 µM)	
CC[N+](C)(CC)CCSC1=Nc2ccccc2N=C(c2ccc(Br)cc2)C1 [Compound 72]	10 µg/mL	20 µg/mL	20 µg/mL	20 µg/mL	
CC[N+](C)(CC)CCSC1=Nc2ccccc2N=C(c2ccc(SC)cc2)C1 [Compound 74]	20 µg/mL	10 µg/mL	10 µg/mL	40 µg/mL	
CCSc1ccc(C2=Nc3ccccc3N=C(SCC[N+](C)(CC)CC)C2)cc1 [Compound 76]	10 µg/mL	10 µg/mL	10 µg/mL	20 µg/mL	
CCCSc1ccc(C2=Nc3ccccc3N=C(SCCN(CC)CC)C2)cc1 [Compound 77]	10 µg/mL (≈ 23.5 µM)	5 µg/mL (≈ 11.7 µM)	5 µg/mL (≈ 11.7 µM)		
CCCSc1ccc(C2=Nc3ccccc3N=C(SCC[N+](C)(CC)CC)C2)cc1 [Compound 78]	1.25 µg/mL	1.25 µg/mL	1.25 µg/mL	10 µg/mL	
CC[N+](C)(CC)CCSC1=Nc2ccccc2N=C(c2ccc(SC(C)C)cc2)C1 [Compound 80]	5 µg/mL	5 µg/mL	5 µg/mL	40 µg/mL	
CCCCSc1ccc(C2=Nc3ccccc3N=C(SCC[N+](C)(CC)CC)C2)cc1 [Compound 82]	2.5 µg/mL	2.5 µg/mL	2.5 µg/mL	10 µg/mL	
